US6005103A, “Pyrone derivatives as protease inhibitors and antiviral agents” (Warner-Lambert Company, priority 1994, dated 1999)
In brackets after ≈: the same amount, converted by molar mass.

Legend:
HIV = settings: cell-free and cell-mediated HIV infection; cited from earlier work
[1] = tested on: Streptococcus pyogenes C203; assay: Antibacterial activity, microtitration dilution method; type: cell-based; settings: read-out: minimum inhibitory concentration (MIC)
Text: (§1) The compounds of the invention display antibacterial activity when tested by the microtitration dilution method as described in Heifetz, et al., Antimicr. Agents. & Chemoth. 6: 124 (1974) which is incorporated herein by reference.
(§2) By use of the above referenced method, the following minimum inhibitory concentration values (MICs in μg/mL) were obtained for representative compounds of the invention vs. clinically relevant gram positive pathogens which have become highly resistant to conventional therapy in recent years.

[2] = tested on: Staphylococcus aureus UC-76; assay: as above; type: cell-based; settings: UC76, read-out: minimum inhibitory concentration (MIC)
Text: as §1, §2

[3] = tested on: Staphylococcus aureus H228; assay: as above; type: cell-based; settings: read-out: minimum inhibitory concentration (MIC)
Text: as §1, §2

[4] = tested on: Streptococcus pneumonia 5V-1; assay: as above; type: cell-based; settings: Streptococcus pneumoniae, 5V1, read-out: minimum inhibitory concentration (MIC)
Text: as §1, §2

[5] = tested on: Enterococcus foecalis MGH2; assay: as above; type: cell-based; settings: read-out: minimum inhibitory concentration (MIC)
Text: as §1, §2

| MIC [1] | MIC [2] | MIC [3] | MIC [4] | MIC [5] | Structure (SMILES) | HIV infection inhibition (in words) (HIV) |
| --- | --- | --- | --- | --- | --- | --- |
|  |  |  |  |  | CC(=O)CC(c1ccccc1)c1c(O)c2ccccc2oc1=O (stereo not drawn) [Warfarin, 3-(α-acetonylbenzyl)-4-hydroxycoumarin] | inhibiting cell-free and cell-mediated HIV infection |
| 25 µg/mL (≈ 67.1 µM) | 12.5 µg/mL (≈ 33.6 µM) | 12.5 µg/mL (≈ 33.6 µM) | 25 µg/mL (≈ 67.1 µM) | 25 µg/mL (≈ 67.1 µM) | CC(C)CC(SC1CCCCC1)c1c(O)cc(-c2ccccc2)oc1=O (racemic) [Example 142, 3-[l-(Cyclohexylthio)-3-methylbutyl]-4-hydroxy-6-phenyl-2H-pyran-2-one (±)] |  |
